Reference: patent publication EP0326331B1, “Substituted quinolines and cinnolines” (Dow AgroSciences LLC, priority 1988, dated 1989)
Where two headings read alike, the source gives them in different places.

How the values were obtained:
Format in all cases: in vivo
[1] = tested on: corn rootworm; test: Mite/insect screen, CRW; settings: percent mortality, read-out: CRW RESULTS %
Summary of the method: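 Percent mortality is evaluated once the standard exposure period ends. Test material is applied as a water dilution of an acetone/alcohol (50:50) stock carrying two sulfonate/nonionic emulsifiers (23 and 13 g per liter).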

[2] = tested on: Pyricularia oryzae (rice blast); test: whole plant or invertebrate; settings: for RICE BLAST: disease control rating, foliar spray on rice, 400 ppm (+++ at 100 ppm)
[3] = tested on: Botrytis cinerea (gray mold); test: Test 1 greenhouse foliar spray screen, gray mold on grape berries; settings: for GRAY MOLD: disease control rating, spray on grape berries, 400 ppm (+++ at 100 ppm)
[4] = tested on: melon aphids (Aphis gossypii Glover); test: Mite/insect screen, MA; settings: Aphis gossypii, percent mortality, read-out: MA RESULTS %
Summary of the method: (§1)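 Formulation: acetone/alcohol 50:50 + sulfonate/nonionic emulsifiers, water-diluted to indicated concs. Spray both leaf surfaces to runoff, 10 psi; dry 1 h. Armyworm: 2 excised uninfested leaves in Petri dish. Score % mortality after standard exposure.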

[5] = tested on: southern armyworm (Spodopetra eridania Cramer); test: Mite/insect screen, SAW; settings: Spodoptera eridania, percent mortality, read-out: SAW RESULTS %
Summary of the method: as §1

[6] = tested on: Venturia inaequalis (apple scab); test: Test 1 greenhouse foliar spray screen, apple scab on apple seedling; settings: for APPL SCAB: disease control rating, foliar spray on apple seedling, 400 ppm (+++ at 100 ppm)
[7] = tested on: Puccinia recondita tritici (leaf rust); test: Test 1 greenhouse foliar spray screen, leaf rust on wheat; settings: for LEAF RUST: disease control rating, foliar spray on wheat, 400 ppm (+++ at 100 ppm)
[8] = tested on: Twospotted spider mites (Tetranychus urticae Koch); test: Mite/insect screen, SM; settings: Tetranychus urticae, percent mortality, read-out: SM RESULTS %
Summary of the method: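 Compounds dissolved in 50:50 acetone/alcohol containing sulfonate/nonionic emulsifier blends, then diluted with water to the indicated concentrations. Leaves sprayed on both surfaces to runoff at 10 psi and dried one hour. Percent mortality scored after standard exposure periods.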

[9] = tested on: Cercospora beticola (leaf spot); test: Test 1 greenhouse foliar spray screen, leaf spot on sugar beet; settings: for LEAF SPOT: disease control rating, foliar spray on sugar beet, 400 ppm (+++ at 100 ppm)
[10] = tested on: Pseudoperonospora cubensis (downy mildew); test: Test 1 greenhouse foliar spray screen, downy mildew on squash; settings: for DOWN MDEW: disease control rating, foliar spray on squash, 400 ppm (+++ at 100 ppm)
[11] = tested on: Erysiphe graminis tritici (powdery mildew); test: Test 1 greenhouse foliar spray screen, powdery mildew on wheat; settings: for POWD MDEW: disease control rating, foliar spray on wheat, 400 ppm (+++ at 100 ppm)
[12] = tested on: Septoria tritici (leaf blotch); test: Test 1 greenhouse foliar spray screen, leaf blotch on wheat; settings: for LEAF BLOT: disease control rating, foliar spray on wheat, 400 ppm (+++ at 100 ppm)
[13] = foliar, rate 200 ppm, foliar spray on squash
[14] = foliar, rate 400 ppm, foliar spray on squash

Structure (SMILES) | mortality at 12 ppm ([1]; CRW RATE 12.00 PPM) | mortality at 24 ppm ([1]; CRW RATE 24.00 PPM) | RICE BLAST [2] | GRAY MOLD [3] | mortality at 200 ppm ([4]; SAW, SM & MA RATE 200 PPM) | mortality at 400 ppm ([4]; SAW, SM & MA RATE 400 PPM) | mortality at 200 ppm ([5]; SAW, SM & MA RATE 200 PPM) | mortality at 400 ppm ([5]; SAW, SM & MA RATE 400 PPM) | APPL SCAB [6] | LEAF RUST [7] | mortality at 200 ppm ([8]; SAW, SM & MA RATE 200 PPM) | mortality at 400 ppm ([8]; SAW, SM & MA RATE 400 PPM) | LEAF SPOT [9] | DOWN MDEW [10] | POWD MDEW [11] | LEAF BLOT [12] | further results
C1=C(CCNc2ccc3nccc(NCCC4=CCCCC4)c3c2)CCCC1 [Example 192, N,N'-bis[2-(1-cyclohexen-yl)ethyl]-4,6-quinolinediamine] |  |  |  |  |  |  |  |  |  |  |  |  |  |  |  |  | mortality at 12 ppm ([1]; CRW rate 12.00 ppm): 0%; mortality at 24 ppm ([1]; CRW rate 24.00 ppm): 0%; pest or weed control at 400 ppm ([2]; Pyricularia oryzae, foliar, read-out: RICE BLAST, Test 1, foliar spray on rice, disease control rating at 400 ppm / 100 ppm): 0 to 19%; pest or weed control at 400 ppm ([3]; Botrytis cinerea, foliar, Test 1, spray on grape berries, disease control rating at 400 ppm / 100 ppm): 0 to 19%; mortality at 200 ppm [4, 13]: 0%; mortality at 400 ppm [4, 14]: 0%; mortality at 200 ppm [5, 13]: 0%; mortality at 400 ppm [5, 14]: 0%; pest or weed control at 400 ppm ([6]; Venturia inaequalis, Test 1, foliar spray on apple seedling, disease control rating at 400 ppm / 100 ppm, read-out: APPL SCAB): 0 to 19%; pest or weed control at 400 ppm ([7]; Puccinia recondita, foliar, Test 1, foliar spray on wheat, disease control rating at 400 ppm / 100 ppm): 90 to 100%; mortality at 200 ppm [8, 13]: 0%; mortality at 400 ppm [8, 14]: 0%; pest or weed control at 400 ppm ([9]; Cercospora beticola, Test 1, foliar spray on sugar beet, disease control rating at 400 ppm / 100 ppm): 0 to 19%; pest or weed control at 400 ppm ([10]; Pseudoperonospora cubensis, foliar, Test 1, foliar spray on squash, disease control rating at 400 ppm / 100 ppm, read-out: DOWN MDEW): 90 to 100%; pest or weed control at 400 ppm ([11]; Blumeria graminis, foliar, Test 1, foliar spray on wheat, disease control rating at 400 ppm / 100 ppm, read-out: POWD MDEW): 0 to 19%; pest or weed control at 400 ppm ([12]; Zymoseptoria tritici, Test 1, foliar spray on wheat, disease control rating at 400 ppm / 100 ppm, read-out: LEAF BLOT): 20 to 89%
CC(=O)N(CCc1cccc(C(F)(F)F)c1)c1ccnc2cc(Cl)ccc12 [Example 126, N-(7-chloro-4-quinolinyl)-N-[2-[3-(trifluoromethyl)phenyl]ethyl]acetamide] | 0% | 0% | +++ (90-100% control at 100 ppm) | - (0-19% control at 400 ppm) | 0% | 0% | 0% | 0% | - (0-19% control at 400 ppm) | + (20-89% control at 400 ppm) | 0% | 0% | - (0-19% control at 400 ppm) | + (20-89% control at 400 ppm) | ++ (90-100% control at 400 ppm) | + (20-89% control at 400 ppm) | 
COc1cccc(CCNc2ccnc3cc(Cl)ccc23)c1 [Example 43, 7-chloro-N-[2-(3-methoxyphenyl)ethyl]-4-quinolinamine] | 0% | 0% | + (20-89% control at 400 ppm) | - (0-19% control at 400 ppm) | 0% | 0% | 0% | 0% | - (0-19% control at 400 ppm) | - (0-19% control at 400 ppm) | 0% | 0% | +++ (90-100% control at 100 ppm) | ++ (90-100% control at 400 ppm) | + (20-89% control at 400 ppm) | - (0-19% control at 400 ppm) | 
Fc1cccc2c(NCCc3c[nH]cn3)ccnc12 [Example 164, 8-fluoro-N-[2-(1H-imidazol-4-yl)ethyl]-4-quinolinamine] | 0% |  | + (20-89% control at 400 ppm) | + (20-89% control at 400 ppm) | 0% |  | 0% |  | - (0-19% control at 400 ppm) | + (20-89% control at 400 ppm) | 0% |  | + (20-89% control at 400 ppm) | ++ (90-100% control at 400 ppm) | - (0-19% control at 400 ppm) | - (0-19% control at 400 ppm) | 
CCC(CNc1ccnc2c(F)cccc12)c1ccccc1 (centres unmarked) [Example 81, 8-fluoro-N-(2-phenylbutyl)-4-quinolinamine] | 0% |  | ++ (90-100% control at 400 ppm) | - (0-19% control at 400 ppm) | 0% |  | 0% |  | - (0-19% control at 400 ppm) | ++ (90-100% control at 400 ppm) | 0% |  | + (20-89% control at 400 ppm) | +++ (90-100% control at 100 ppm) | + (20-89% control at 400 ppm) | - (0-19% control at 400 ppm) | 
Fc1cccc2c(NCCc3cccc(Br)c3)ccnc12 [Example 108, N-[2-(3-bromophenyl)ethyl]-8-fluoro-4-quinolinamine] | 0% |  | + (20-89% control at 400 ppm) | - (0-19% control at 400 ppm) | 0% |  | 0% |  | - (0-19% control at 400 ppm) | ++ (90-100% control at 400 ppm) | 0% |  | - (0-19% control at 400 ppm) | + (20-89% control at 400 ppm) | + (20-89% control at 400 ppm) | +++ (90-100% control at 100 ppm) | 
COc1cc(CCNc2ccnc3c(F)cccc23)cc(OC)c1 [Example 119, N-[2-(3,5-dimethoxyphenyl)ethyl]-8-fluoro-4-quinolinamine] | 0% |  | + (20-89% control at 400 ppm) | - (0-19% control at 400 ppm) | 0% |  | 0% |  | + (20-89% control at 400 ppm) | + (20-89% control at 400 ppm) | 0% |  | - (0-19% control at 400 ppm) | ++ (90-100% control at 400 ppm) | + (20-89% control at 400 ppm) | + (20-89% control at 400 ppm) | 
FC(F)(F)c1cccc2c(NCCc3ccc(Cl)cc3Cl)ccnc12 [Example 52, N-[2-(2,4-dichlorophenyl)ethyl]-8-(trifluoromethyl)-4-quinolinamine] | 0% | 0% | + (20-89% control at 400 ppm) | - (0-19% control at 400 ppm) | 0% | 0% | 0% | 0% | - (0-19% control at 400 ppm) | + (20-89% control at 400 ppm) | 0% | 0% | + (20-89% control at 400 ppm) | +++ (90-100% control at 100 ppm) | - (0-19% control at 400 ppm) | +++ (90-100% control at 100 ppm) | 
COc1ccc(CCNc2ccnc3cc(Cl)ccc23)cc1 [Example 84, 7-chloro-N-[2-(4-methoxyphenyl)ethyl]-4-quinolinamine] | 0% | 0% | ++ (90-100% control at 400 ppm) | - (0-19% control at 400 ppm) | 0% | 0% | 10% | 0% | - (0-19% control at 400 ppm) | ++ (90-100% control at 400 ppm) | 0% | 0% | + (20-89% control at 400 ppm) | ++ (90-100% control at 400 ppm) | +++ (90-100% control at 100 ppm) | - (0-19% control at 400 ppm) | 
